Results from publication PMC12362764, “Novel Cyano‐Artemisinin Dimer ZQJ29 Targets PARP1 to Induce Ferroptosis in Pancreatic Cancer Treatment” (Advanced Science, 2025).

Key:
PANC-1 = experiment: CCK-8 cytotoxicity assay, PANC-1; type: cell-based
Method: (§1) Cell viability was evaluated using the Cell Counting Kit‐8 (Beyotime, Shanghai, China) assay. Cells were seeded in 96‐well plates at a density of 2×10^3 cells to allow for attachment. After treatment with ZQJ29 (0.001, 0.01, 0.1, 10, and 25 µM) for 24, 48, and 72 h, 10 µL of CCK‐8 solution was added to each well and incubated for 1 h. The optical density values were then measured at 450 nm using a multifunctional enzyme‐linked immunosorbent assay reader (Tecan, Spark, Switzerland).

PANC-1 and KP4 cells [1] = experiment: Wound healing (cell migration) assay; type: cell-based; details: 0, 1, 2.5, 5 µM; 12 and 24 h
Method: PANC‐1 and KP4 cells were cultured in 6‐well plates until complete confluence was reached. A “scratch” or “wound” was made with a sterile 10 µL pipette tip. Following this, the cells were treated with varying concentrations of ZQJ29 (0, 1, 2.5, and 5 µM). After 12 and 24 h, migration activity were observed and captured using an inverted EVOS microscope (Thermo Fisher Scientific, USA). The number of migrated cells were then quantified.

JHH7 = experiment: CCK-8 cytotoxicity assay, JHH7; type: cell-based; details: JHH7, 72 h
Method: as §1

PANC-1 cells = experiment: Cell cycle analysis (PI, flow cytometry), PANC-1; type: cell-based; details: PANC-1, 24 h
Method: (§2) PANC‐1 and KP4 cells were placed in 6 cm dishes and exposed to designated concentrations of ZQJ29 (1 µM) for 24 h before trypsinization. After centrifugation, the cells were secured and preserved in ice‐cold 70% ethanol and stored at 4 °C for 24 h. They were then thoroughly washed with PBS multiple times. Next, the fixed cells were incubated in PBS supplemented with RNase and PI solution for 30 min at 37 °C, protected from light exposure. Cell cycle progression was assessed using a flow cytometer. This experimental procedure was systematically conducted in three separate trials, with each trial done in triplicate. Cell cycle kits were obtained from Beyotime (Shanghai, China).

HCT116 = experiment: CCK-8 cytotoxicity assay, HCT116; type: cell-based; details: Homo sapiens, HCT-116; HCT116, 72 h
Method: as §1

PANC-1 and KP4 cells [2] = experiment: Colony formation assay; type: cell-based; details: 0, 1, 2.5, 5 µM, concentration-dependent
Method: The clonogenicity of pancreatic cancer cells was evaluated using a colony formation assay. PANC‐1 and KP4 cells were seeded into 6‐well plates at ≈200 cells per well in the conditional medium. The cells were treated with different concentrations of ZQJ29 (0, 1, 2.5, and 5 µM) for 24 h. After treatment, the drug‐containing medium was removed, and complete medium was added for an additional […] in a 37 °C incubator with 5% CO2. The plates were then washed with PBS and fixed with 4% paraformaldehyde. After staining with 0.5% crystal violet (Yeasen, Shanghai, China), the colonies were counted manually.

THLE-2 = experiment: CCK-8 cytotoxicity assay, THLE-2 (normal cell line); type: cell-based; details: Homo sapiens, 72 h
Method: as §1

KP4 = experiment: CCK-8 cytotoxicity assay, KP4; type: cell-based
Method: as §1

HPDE6-C7 = experiment: CCK-8 cytotoxicity assay, HPDE6-C7 (normal cell line); type: cell-based; details: HPDE6c7, 72 h
Method: as §1

PARP1 = PARP1 (Homo sapiens, UniProt P09874); experiment: CETSA; type: binding; set-up: Total cellular proteins from PANC‐1 and KP4 were extracted using M‐PER lysis buffer; endogenous in cells; host or cells: PANC-1 and KP4 pancreatic cancer cells
Chain of PARP1 (P09874 whole entry): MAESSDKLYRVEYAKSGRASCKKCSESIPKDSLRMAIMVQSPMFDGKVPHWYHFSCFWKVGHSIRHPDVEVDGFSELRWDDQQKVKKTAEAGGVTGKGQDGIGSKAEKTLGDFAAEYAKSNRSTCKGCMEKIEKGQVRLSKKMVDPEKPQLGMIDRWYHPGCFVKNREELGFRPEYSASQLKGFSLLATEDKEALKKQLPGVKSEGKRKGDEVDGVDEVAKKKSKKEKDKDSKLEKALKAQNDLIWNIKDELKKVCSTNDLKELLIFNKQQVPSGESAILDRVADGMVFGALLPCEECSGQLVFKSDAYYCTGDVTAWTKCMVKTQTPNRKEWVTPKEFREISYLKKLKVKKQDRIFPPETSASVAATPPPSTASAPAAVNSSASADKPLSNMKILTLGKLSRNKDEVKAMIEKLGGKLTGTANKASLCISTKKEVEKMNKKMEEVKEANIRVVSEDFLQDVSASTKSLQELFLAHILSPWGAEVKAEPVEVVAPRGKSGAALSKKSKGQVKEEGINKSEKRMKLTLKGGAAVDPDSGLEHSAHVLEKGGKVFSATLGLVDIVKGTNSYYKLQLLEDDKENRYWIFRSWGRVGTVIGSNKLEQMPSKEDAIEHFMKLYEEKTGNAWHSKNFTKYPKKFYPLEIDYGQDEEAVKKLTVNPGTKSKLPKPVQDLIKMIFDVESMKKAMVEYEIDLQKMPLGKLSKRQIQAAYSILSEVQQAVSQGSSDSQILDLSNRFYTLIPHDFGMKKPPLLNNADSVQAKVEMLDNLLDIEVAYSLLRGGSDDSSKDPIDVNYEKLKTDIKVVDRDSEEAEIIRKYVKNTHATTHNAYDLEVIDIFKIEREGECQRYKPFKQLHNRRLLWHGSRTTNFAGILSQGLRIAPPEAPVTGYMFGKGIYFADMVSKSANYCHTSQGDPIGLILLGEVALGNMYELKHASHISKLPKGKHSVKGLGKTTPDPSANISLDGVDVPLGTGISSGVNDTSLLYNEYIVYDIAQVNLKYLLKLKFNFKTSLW
Method: PANC‐1 and KP4 cells were treated with M‐PER lysis buffer to lyse the cells. The resulting protein extracts were divided into two parts. One part was treated with 50 µM ZQJ29, while the other received an equal amount of DMSO. Both mixtures were incubated on ice for 1 h. The samples were then divided into 100 µL PCR tubes and exposed to a range of temperatures starting at 45 °C. After cooling and centrifugation, 5 × SDS loading buffers were added to the supernatant. The samples were then heated to 95 °C for 10 min and analyzed SDS‐PAGE followed by Western blotting.

HeLa = experiment: CCK-8 cytotoxicity assay, HeLa; type: cell-based; details: Homo sapiens, 72 h
Method: as §1

PANC-1 and KP4 cells [3] = experiment: Ferroptosis markers (lipid ROS, iron, MDA, GSH); type: cell-based; details: 0, 1, 2.5, 5 µM, 24 h of ZQJ29 treatment
KP4 cells = experiment: Cell cycle analysis (PI, flow cytometry), KP4; type: cell-based; details: KP4, 24 h
Method: as §2

PANC-1 and KP4 cells [4] = experiment: CCK-8 viability after PARP1 siRNA knockdown; type: cell-based; details: PARP1-siRNA transfection, ZQJ29 1 µM, 24 h
Method: as §1
A short interfering RNA (siRNA) targeting human PARP1 was designed and synthesized by GenePharma (Shanghai, China). The sequences of the siRNAs are detailed in Table S5 (Supporting Information). PANC‐1 and KP4 Cells were cultured in six‐well plates until they reached 70% confluence. The cells were then transfected with 50 nM siRNA‐PARP1 or a negative control with Lipofectamine 2000 (Thermo Fisher, USA) for 24 h, according to the manufacturer's instructions.

H1975 = experiment: CCK-8 cytotoxicity assay, H1975; type: cell-based; details: Homo sapiens, NCI-H1975, 72 h
Method: as §1

With `CC1CCC2C(C)C(OCCN(C#N)CCOC3OC4OC5(C)CCC6C(C)CCC(C3C)C46OO5)OC3OC4(C)CCC1C32OO4` (stereo not shown) [ZQJ29] the IC50 (PANC-1; Homo sapiens, PANC-1, 72 h, average of 3 parallel tests) was 120 ± 30 nM, the “increased cytotoxicity compared to OXA and DHA” value (PANC-1; PANC-1 cells) was “≈ 100 fold” and the migration abilities (PANC-1 and KP4 cells [1]) was “impaired”. The IC50 (JHH7) was 791 ± 305 nM, the cell cycle arrest (PANC-1 cells) was “remarkable G2/M phase arrest” and the IC50 (HCT116) was 1020 ± 500 nM. The colony formation (PANC-1 and KP4 cells [2]) was “significantly inhibited”, the IC50 (THLE-2) was over 10000 nM and the IC50 (KP4; Homo sapiens, KP-4, KP4, as printed in the text) was 885 ± 106 nM. For the same molecule, the “enhanced cytotoxic effect compared to OXA and DHA” value (KP4; KP4 cells) was 10 fold, the “potency of antitumor over DHA” value (KP4; discussion, cell line not stated) was 10 fold and the IC50 (HPDE6-C7) was over 10000 nM. For the same molecule, the “PARP1 accumulation (thermal stability)” value (PARP1; PANC-1 and KP4 lysates, 50 µM ZQJ29, 45 to 70 °C) was “significantly increased”, the “PARP1 stability at 60 °C” value (PARP1; cell lysates, increasing ZQJ29 concentrations) was “enhanced” and the IC50 (HeLa) was 1280 ± 289 nM. For the same molecule, the “intracellular ROS, iron, MDA and GSH levels” value (PANC-1 and KP4 cells [3]) was “increased ROS release, iron accumulation, MDA production, and GSH depletion”, the cell cycle arrest (KP4 cells) was “remarkable G2/M phase arrest” and the “proliferation inhibition by ZQJ29 upon PARP1 knockdown” value (PANC-1 and KP4 cells [4]) was “markedly reversed”. For the same molecule, the IC50 (H1975) was 2190 ± 113 nM.
